For 29 molecules, IC50 results are on record in patent publication US8633204B2 (Pfizer Inc., priority 2006, dated 2014).

For orientation: pIC50 means −log10 of the IC50, conventionally taken in molar units. High values mean a small IC50, low ones a large IC50.

One test addresses PI3-Kα (Mus musculus (Mouse), UniProt P42337). The test can be described thus: PI3-Kα Biochemical Assay (fluorescence polarization kinase assay). The method in brief: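 Co-expressed mouse p110/p85 PI3-Kα (4 nM stock) acting on PI(4,5)P2 (60 μM stock) with ATP/MgCl2 in HEPES pH 7.4 buffer, 35 min at room temperature, then EDTA stop. PI(3,4,5)P3 product detected by displacement of TAMRA-PIP3 from Grip1 PH domain (FP, 535/580 nm). IC50 from sigmoidal fit of % inhibition.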
On the technique in general: Fluorescence polarisation rises when a labelled molecule tumbles more slowly, as on binding a larger partner.

Test [1] relates to PI3-K in BT20 cells (phosphorylation of AKT at serine 473). Nature of the test: PI3-Kα Cellular Assay (AKT Ser473 phosphorylation ELISA in BT20 cells). Format: cell-based, human. As to conditions: 1 hour incubation. The method in brief: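 Cells seeded overnight in 0.5% FBS, then exposed 1 h at 37 °C to an 11-concentration 1:3 dilution series, in duplicate.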
For orientation: An ELISA detects its analyte on a solid surface through an enzyme-linked reagent.

Where [2] appears, read: Homo sapiens, BT-20, pAKT Ser473 ELISA.

pIC50: −log10 of the molar value.

PI3-Kα, sequence (P42337 whole entry, the tested form may be a part): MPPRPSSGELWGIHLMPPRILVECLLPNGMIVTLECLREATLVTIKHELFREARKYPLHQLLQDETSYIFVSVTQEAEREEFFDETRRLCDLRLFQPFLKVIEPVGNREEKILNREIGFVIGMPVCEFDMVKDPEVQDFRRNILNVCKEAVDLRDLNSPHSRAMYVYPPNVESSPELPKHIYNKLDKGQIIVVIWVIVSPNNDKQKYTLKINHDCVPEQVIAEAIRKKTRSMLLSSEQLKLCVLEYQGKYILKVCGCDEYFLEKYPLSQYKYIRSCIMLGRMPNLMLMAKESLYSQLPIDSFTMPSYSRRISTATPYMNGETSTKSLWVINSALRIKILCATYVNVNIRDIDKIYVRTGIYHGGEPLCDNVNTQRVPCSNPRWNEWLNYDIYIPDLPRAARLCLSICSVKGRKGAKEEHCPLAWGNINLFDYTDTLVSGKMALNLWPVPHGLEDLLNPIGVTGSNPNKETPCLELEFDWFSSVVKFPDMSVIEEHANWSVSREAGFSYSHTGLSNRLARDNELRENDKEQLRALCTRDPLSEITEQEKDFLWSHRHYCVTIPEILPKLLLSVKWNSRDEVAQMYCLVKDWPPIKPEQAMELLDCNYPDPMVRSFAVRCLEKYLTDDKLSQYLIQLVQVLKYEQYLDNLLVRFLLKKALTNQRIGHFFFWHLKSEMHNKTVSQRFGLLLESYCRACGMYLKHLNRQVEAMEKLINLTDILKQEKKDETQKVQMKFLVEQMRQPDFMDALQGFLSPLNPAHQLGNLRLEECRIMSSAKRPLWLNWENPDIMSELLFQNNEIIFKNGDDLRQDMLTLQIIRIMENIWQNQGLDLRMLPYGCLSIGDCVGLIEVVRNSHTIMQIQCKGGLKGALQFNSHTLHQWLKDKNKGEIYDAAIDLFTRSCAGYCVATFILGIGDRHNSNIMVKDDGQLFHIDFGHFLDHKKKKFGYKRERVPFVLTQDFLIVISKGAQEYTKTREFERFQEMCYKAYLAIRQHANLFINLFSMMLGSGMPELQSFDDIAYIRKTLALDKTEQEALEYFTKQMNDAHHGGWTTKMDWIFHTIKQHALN
PI3-Kα, sequence (P26450 whole entry partner, the tested form may be a part): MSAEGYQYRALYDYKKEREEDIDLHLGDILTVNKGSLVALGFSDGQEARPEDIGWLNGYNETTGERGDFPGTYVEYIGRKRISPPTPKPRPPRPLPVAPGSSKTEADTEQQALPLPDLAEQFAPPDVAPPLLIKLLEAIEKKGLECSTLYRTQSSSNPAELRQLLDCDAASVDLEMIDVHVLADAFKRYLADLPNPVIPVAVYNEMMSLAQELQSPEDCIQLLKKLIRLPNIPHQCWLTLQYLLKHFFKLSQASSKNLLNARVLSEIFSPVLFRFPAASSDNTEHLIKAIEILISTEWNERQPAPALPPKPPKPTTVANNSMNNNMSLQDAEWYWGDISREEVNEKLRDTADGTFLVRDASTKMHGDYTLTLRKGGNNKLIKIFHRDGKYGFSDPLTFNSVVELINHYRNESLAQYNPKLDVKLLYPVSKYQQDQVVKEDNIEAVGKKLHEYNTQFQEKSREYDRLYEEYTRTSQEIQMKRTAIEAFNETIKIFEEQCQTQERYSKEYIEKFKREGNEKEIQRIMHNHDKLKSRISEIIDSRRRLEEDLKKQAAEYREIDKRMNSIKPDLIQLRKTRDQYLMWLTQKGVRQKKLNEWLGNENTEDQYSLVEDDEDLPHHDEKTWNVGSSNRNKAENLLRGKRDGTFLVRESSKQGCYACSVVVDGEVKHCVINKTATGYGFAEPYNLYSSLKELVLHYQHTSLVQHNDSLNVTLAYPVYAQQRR

For `COc1ccc(-c2cc3c(C)nc(N)nc3n(CC(C)(C)F)c2=O)cn1` [Compound 244, 2-Amino-8-(2-fluoro-2-methyl-propyl)-6-(6-methoxy-pyridin-3-yl)-4-methyl-8H-pyrido[2,3-d]pyrimidin-7-one], the results for the pIC50 (against PI3-Kα; in test [1] (setting [2])) were 7.52 and 6.36, respectively.
For the molecule `CNc1nc(C)c2cc(-c3c[nH]c(C)n3)c(=O)n(C3CCCC3)c2n1` [Compound 245, 8-Cyclopentyl-4-methyl-2-methylamino-6-(2-methyl-1H-imidazol-4-yl)-8H-pyrido[2,3-d]pyrimidin-7-one], the results for the pIC50 (against PI3-Kα; in test [1] (setting [2])) were 7.17 and 6.74, respectively.
For the molecule `COc1ccc(-c2cc3c(C)nc(N)nc3n(C3CCN(C(=O)OC(C)(C)C)C3)c2=O)cn1` (stereo not shown) [Compound 246, 3-[2-Amino-6-(6-methoxy-pyridin-3-yl)-4-methyl-7-oxo-7H-pyrido[2,3-d]pyrimidin 8-yl]-pyrrolidine-1-carboxylic acid tert-butyl ester], the pIC50 against PI3-Kα is 7.57; in test [1] (setting [2]), 6.76.
As to `COc1ccc(-c2cc3c(C)nc(N)nc3n(C3CCNC3)c2=O)cn1` (stereo not shown) [Compound 247, 2-Amino-6-(6-methoxy-pyridin-3-yl)-4-methyl-8-pyrrolidin-3-yl-8H-pyrido[2,3-d]pyrimidin-7-one], the negative logarithm of the IC50 (pIC50) against PI3-Kα was 6.70; in test [1] (setting [2]) it was 6.17.
On to `COc1ccc(-c2cc3c(C)nc(N)nc3n(C3CCN(C(C)=O)C3)c2=O)cn1` (stereo not shown) [Compound 248, 8-(1-Acetyl-pyrrolidin-3-yl)-2-amin-6-(6-methoxy-pyridin-3-yl)-4-methyl-8H-pyrido[2,3-d]pyrimidin-7-one], for which the pIC50 at PI3-Kα is 8.15; in test [1] (setting [2]) it was 6.90.
As to `CNc1nc(C)c2cc(C(=O)Nc3cc[nH]n3)c(=O)n(C3CCCC3)c2n1` [Compound 250, 8-Cyclopentyl-4-methyl-2-methylamino-7-oxo-7,8-dihydro-pyrido[2,3-d]pyrimidine-6-carboxylic acid (1H-pyrazol-3-yl)-amide], the pIC50 was 8.63 at PI3-Kα and 7.79 in test [1] (setting [2]).
As to `Cc1nc(N)nc2c1cc(C(=O)Nc1ccn[nH]1)c(=O)n2[C@H]1CC[C@H](O)CC1` [Compound 251, 2-Amino-8-(trans-4-hydroxycyclohexyl)-4-methyl-7-oxo-N-1H-pyrazol-5-yl-7,8-dihydropyrido[2,3-d]pyrimidine-6-carboxamide], the pIC50 at PI3-Kα is 9.23; in test [1] (setting [2]), 7.55.
The matching figures for `Cc1nc(N)nc2c1cc(-c1ccc(N3CCCC3)nc1)c(=O)n2[C@H]1CC[C@H](O)CC1` [Compound 253, 2-amino-8-(trans-4-hydroxycyclohexyl)-4-methyl-6-(6-pyrrolidin-1-ylpyridin-3-yl)pyrido[23-d]pyrimidin-7(8H)-one]: 7.72 and 8.31.
As for `COc1ncc(-c2cc3c(C)nc(N)nc3n(C3CCCC3)c2=O)cn1` [Compound 255, 2-amino-8-cyclopentyl-6-(2-methoxypyrimidin-5-yl)-4-methylpyrido[23-d]pyrimidin-7(8H)-one], the results for the pIC50 (against PI3-Kα; in test [1] (setting [2])) were 8.70 and 8.02, respectively.
Regarding `Cc1nc(N)nc2c1cc(-c1cccc(CO)c1)c(=O)n2C1CCCC1` [Compound 256], the pIC50 was 8.51 on PI3-Kα and 7.69 in test [1] (pAKT Ser473 ELISA).
`Cc1cc(-c2cc3c(C)nc(N)nc3n(C3CCCC3)c2=O)cnc1N(C)C` [Compound 257, 2-amino-8-cyclopentyl-6-[6-(dimethylamino)-5-methylpyridin-3-yl]-4-methylpyrido[23-d]pyrimidin-7(8H)-one]: the negative logarithm of the IC50 (pIC50) against PI3-Kα was 7.96; in test [1] (setting [2]), 7.64.
As to `Cc1nc(N)nc2c1cc(-c1ccc(N3CCCC3)nc1)c(=O)n2C1CCCC1` [Compound 258, 2-amino-8-cyclopentyl-4-methyl-6-(6-pyrrolidin-1-ylpyridin-3-yl)pyrido[23-d]pyrimidin-7(8H)-one], the pIC50 on PI3-Kα is 7.06; in test [1] (setting [2]), 7.58.
`COc1ncc(-c2cc3c(C)nc(N)nc3n(C3CCOCC3)c2=O)cn1` [Compound 259, 2-amino-6-(2-methoxypyrimidin-5-yl)-4-methyl-8-(tetrahydro-2H-pyran-4-yl)pyrido[23-d]pyrimidin-7(8H)-one]: the values for the pIC50 (on PI3-Kα; in test [1] (setting [2])) were 7.35 and 7.57, respectively.
Turning to `Cc1nc(N)nc2c1cc(-c1cccc(CO)c1)c(=O)n2C1CCOCC1` [Compound 260, 2-amino-6-[3-(hydroxymethyl)phenyl]-4-methyl-8-(tetrahydro-2H-pyran-4-yl)pyrido[23-d]pyrimidin-7(8H)-one], the pIC50 against PI3-Kα was 8.41; in test [1] (setting [2]), 7.48.
As to `COc1ccc(-c2cc3c(C)nc(N)nc3n(C3CCCC3)c2=O)cc1F` [Compound 262, 2-amino-8-cyclopentyl-6-(3-fluoro-4-methoxyphenyl)-4-methylpyrido[23-d]pyrimidin-7(8H)-one], the pIC50 at PI3-Kα was 7.82; in test [1] (setting [2]), 7.34.
The corresponding values for `CCN(CC)C(=O)OCn1cc(-c2cc3c(C)nc(N)nc3n(C(C)C)c2=O)nn1` [Compound 263, (4-(2-Amino-8-isopropyl-4-methyl-7-oxo-7,8-dihydropyrido[2,3-d]pyrimidin-6-yl)-1H-1,2,3-triazol-1-yl)methyl diethylcarbamate] are 5.48 and 5.00.
Turning to `Cc1nc(N)nc2c1cc(-c1c[nH]nn1)c(=O)n2C(C)C` [Compound 264, 2-Amino-8-isopropyl-4-methyl-6-(1H-1,2,3-triazol-4-yl)pyrido[2,3-d]pyrimidin-7(8H)-one], the results for the pIC50 (against PI3-Kα; in test [1] (setting [2])) were 7.21 and 6.25, respectively.
Regarding `COc1ncc(-c2cc3c(C)nc(N)nc3n(C(C)C)c2=O)cn1` [Compound 266, 2-amino-8-isopropyl-6-(2-methoxypyrimidin-5-yl)-4-methylpyrido[2,3-d]pyrimidin-7(8H)-one], the pIC50 against PI3-Kα was 8.66; in test [1] (setting [2]), 7.31.
The matching figures for `Cc1nc(N)nc2c1cc(-c1cnc(O)nc1)c(=O)n2C1CCOCC1` [Compound 267, 2-Amino-6-(2-hydroxypyrimidin-5-yl)-4-methyl-8-(tetrahydro-2H-pyran-4-yl)pyrido[2,3-d]pyrimidin-7(8H)-one]: 6.09 and 5.00.
As for `Cc1nc(N)nc2c1cc(-c1cnc(O)nc1)c(=O)n2C(C)C` [Compound 268, 2-amino-6-(2-hydroxypyrimidin-5-yl)-8-isopropyl-4-methylpyrido[2,3-d]pyrimidin-7(8H)-one], the pIC50 is 6.52 against PI3-Kα and 5.60 in test [1] (setting [2]).
For the molecule `Cc1nc(N)nc2c1cc(C#N)c(=O)n2C1CCC1` [Compound 269, 2-Amino-8-cyclobutyl-4-methyl-7-oxo-7,8-dihydropyrido[2,3-d]pyrimidine-6-carbonitrile], the pIC50 is 7.02 on PI3-Kα and 5.68 in test [1] (setting [2]).
Regarding `C#Cc1cc2c(C)nc(N)nc2n(C2CCC2)c1=O` [Compound 270, 2-Amino-8-cyclobutyl-6-ethynyl-4-methylpyrido[2,3-d]pyrimidin-7(8H)-one], the pIC50 against PI3-Kα is 6.96; in test [1] (setting [2]), 6.18.
Take `Cc1nc(N)nc2c1cc(-c1cnc3ccccc3c1)c(=O)n2[C@H]1CC[C@H](O)CC1` [Compound 271, 2-amino-8-(trans-4-hydroxycyclohexyl)-4-methyl-6-(quinolin-3-yl)pyrido[2,3-d]pyrirnidin-7(8H)-one]: the pIC50 was 8.09 against PI3-Kα and 7.38 in test [1] (setting [2]).
On to `COc1ccc(-c2cc3c(C)nc(NCC(F)F)nc3n([C@H]3CC[C@H](O)CC3)c2=O)cn1` [Compound 275, 2-(2,2-Difluoroethylamino)-8-(4-hydroxycyclohexyl)-6-(6-methoxypyridin-3-yl)-4-methylpyrido[2,3-d]pyrimidin-7(8H)-one], for which the pIC50 on PI3-Kα was 7.92; in test [1] (setting [2]), 7.33.
For the molecule `CCNc1nc(C)c2cc(-c3cnc(OC)c(F)c3)c(=O)n([C@H]3CC[C@H](O)CC3)c2n1` [Compound 276, 2-(ethylamino)-6-(5-fluoro-6-methoxypyridin-3-yl)-8-(trans-4-hydroxycyclohexyl)-4-methylpyrido[2,3-d]pyrimidin-7(8H)-one], the pIC50 at PI3-Kα was 9.10; in test [1] (setting [2]), 8.29.
For `CCNc1nc(C)c2cc(-c3cnc(OC)nc3)c(=O)n([C@H]3CC[C@H](O)CC3)c2n1` [Compound 277, 2-(ethylamino)-8-(trans-4-hydroxycyclohexyl)-6-(2-methoxypyrimidin-5-yl)-4-methylpyrido[2,3-d]pyrimidin-7(8H)-one], the pIC50 on PI3-Kα was 8.80; in test [1] (setting [2]), 7.69.
`CCn1nccc1NC(=O)c1cc2c(C)nc(N)nc2n([C@H]2CC[C@H](O)CC2)c1=O` [Compound 278, 2-amino-N-(1-ethyl-1H-pyrazol-5-yl)-8-(trans-4-hydroxycyclohexyl)-4-methyl-7-oxo-78-dihydropyrido[23-d]pyrimidine-6-carboxamide]: the pIC50 against PI3-Kα was 8.89; in test [1] (setting [2]) it was 7.30.
The corresponding values for `Cc1nc(N)nc2c1cc(C(=O)Nc1ccn[nH]1)c(=O)n2C(C)C` [Compound 279, 2-amino-8-isopropyl-4-methyl-7-oxo-N-1H-pyrazol-5-yl-7,8-dihydropyrido[2,3-d]pyrimidine-6-carboxamide] are 8.54 and 7.52.
Consider `CCn1cc(CNC(=O)c2cc3c(C)nc(NC)nc3n(C3CCCC3)c2=O)cn1` [Compound 281, 8-cyclopentyl-N-[(1-ethyl-1H-pyrazol-4-yl)methyl]-4-methyl-2-(methylamino)-7-oxo-7,8-dihydropyrido[2,3-d]pyrimidine-6-carboxamide], for which the results for the pIC50 (on PI3-Kα; in test [1] (setting [2])) were 5.92 and below 5.00, respectively.
